Test results from patent US20250236608A1, “EGFR INHIBITORS” (Blueprint Medicines Corporation, priority 2022, published 2025).

How the values were obtained:
[1] = biological target: pEGFR (Tyr1068) in PC-9 cells (Ex19Del) (Homo sapiens (Human), UniProt P00533, DEL746-750); assay: PC-9 pEGFR AlphaLISA assay; type: cell-based; settings: 4 hours incubation, p-EGFR (Tyr1068) AlphaLISA, read-out: Ext pEGFR_PC-9 Ex19Del IC50
Summary of the method: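 Readout: AlphaLISA SureFire Ultra signal in cell lysates, with acceptor beads for 1.5-2 h and donor beads overnight at room temperature in the dark. Beforehand, unstimulated cells in 10% FBS medium received compounds (10 points, 4-fold steps) for 4 h at 37° C. IC50 came from percent inhibition curves.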

EGFR L858R = EGFR L858R (Homo sapiens (Human), UniProt P00533, L858R); assay: Biochemical EGFR inhibition assay, EGFR L858R; settings: Caliper mobility shift; 1.0 mM ATP or ATP Km; read-out: Enz EGFR_L858R IC50
EGFR (d746-750) = EGFR (d746-750) (Homo sapiens (Human), UniProt P00533, DEL746-750); assay: Biochemical EGFR inhibition assay, EGFR (d746-750); settings: Caliper mobility shift; 1.0 mM ATP or ATP Km; read-out: Enz EGFR_Exon19-del746-750 IC50
Chain of EGFR (d746-750) (P00533 other isoform, or with tags, fused parts or gaps del 1-694/del 746-750 limits assumed): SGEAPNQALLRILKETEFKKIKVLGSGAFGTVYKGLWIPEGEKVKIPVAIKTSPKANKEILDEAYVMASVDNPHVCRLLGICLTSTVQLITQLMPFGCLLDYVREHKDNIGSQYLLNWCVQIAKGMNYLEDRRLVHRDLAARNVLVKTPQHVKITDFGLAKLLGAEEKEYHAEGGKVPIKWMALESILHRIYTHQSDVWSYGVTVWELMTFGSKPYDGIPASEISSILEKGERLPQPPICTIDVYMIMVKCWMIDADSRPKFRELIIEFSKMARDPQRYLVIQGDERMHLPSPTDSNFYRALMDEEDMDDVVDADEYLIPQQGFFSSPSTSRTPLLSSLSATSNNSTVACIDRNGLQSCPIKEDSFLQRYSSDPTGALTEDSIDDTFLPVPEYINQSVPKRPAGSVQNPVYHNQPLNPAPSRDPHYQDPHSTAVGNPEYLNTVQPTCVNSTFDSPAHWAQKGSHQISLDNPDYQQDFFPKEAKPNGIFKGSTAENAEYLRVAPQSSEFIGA

Chain of EGFR L858R (P00533 25-1210 L858R): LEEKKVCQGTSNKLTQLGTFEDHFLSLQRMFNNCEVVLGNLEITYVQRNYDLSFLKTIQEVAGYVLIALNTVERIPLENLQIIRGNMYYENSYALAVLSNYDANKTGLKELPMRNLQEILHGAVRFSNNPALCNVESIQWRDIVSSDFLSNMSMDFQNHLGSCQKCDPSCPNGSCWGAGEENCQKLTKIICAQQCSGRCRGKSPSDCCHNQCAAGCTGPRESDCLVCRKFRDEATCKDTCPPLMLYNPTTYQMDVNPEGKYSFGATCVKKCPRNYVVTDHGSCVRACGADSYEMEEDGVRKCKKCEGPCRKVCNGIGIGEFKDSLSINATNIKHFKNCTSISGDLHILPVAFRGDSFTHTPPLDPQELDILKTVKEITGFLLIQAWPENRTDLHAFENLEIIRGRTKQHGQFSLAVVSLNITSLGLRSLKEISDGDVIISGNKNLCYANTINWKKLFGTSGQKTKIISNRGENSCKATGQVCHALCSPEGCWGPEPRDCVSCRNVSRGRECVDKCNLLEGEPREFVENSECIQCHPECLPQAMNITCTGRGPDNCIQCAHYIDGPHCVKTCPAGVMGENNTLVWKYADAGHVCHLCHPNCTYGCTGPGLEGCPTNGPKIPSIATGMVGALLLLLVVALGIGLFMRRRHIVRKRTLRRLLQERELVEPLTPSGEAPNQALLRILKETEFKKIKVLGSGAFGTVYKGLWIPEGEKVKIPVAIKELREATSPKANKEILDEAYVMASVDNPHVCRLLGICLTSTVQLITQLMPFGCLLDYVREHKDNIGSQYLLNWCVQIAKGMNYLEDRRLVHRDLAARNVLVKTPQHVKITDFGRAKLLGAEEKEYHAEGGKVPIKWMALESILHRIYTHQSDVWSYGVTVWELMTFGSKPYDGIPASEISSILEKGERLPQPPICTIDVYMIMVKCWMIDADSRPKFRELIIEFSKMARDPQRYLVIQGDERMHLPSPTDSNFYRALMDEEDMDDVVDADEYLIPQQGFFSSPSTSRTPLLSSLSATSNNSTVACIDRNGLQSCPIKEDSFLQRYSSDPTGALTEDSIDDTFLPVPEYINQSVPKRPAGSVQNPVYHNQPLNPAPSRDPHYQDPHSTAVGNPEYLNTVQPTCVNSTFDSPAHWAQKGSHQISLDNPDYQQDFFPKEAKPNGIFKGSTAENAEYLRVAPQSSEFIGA
Chain of pEGFR (Tyr1068) in PC-9 cells (Ex19Del) (P00533 other isoform, or with tags, fused parts or gaps del 746-750): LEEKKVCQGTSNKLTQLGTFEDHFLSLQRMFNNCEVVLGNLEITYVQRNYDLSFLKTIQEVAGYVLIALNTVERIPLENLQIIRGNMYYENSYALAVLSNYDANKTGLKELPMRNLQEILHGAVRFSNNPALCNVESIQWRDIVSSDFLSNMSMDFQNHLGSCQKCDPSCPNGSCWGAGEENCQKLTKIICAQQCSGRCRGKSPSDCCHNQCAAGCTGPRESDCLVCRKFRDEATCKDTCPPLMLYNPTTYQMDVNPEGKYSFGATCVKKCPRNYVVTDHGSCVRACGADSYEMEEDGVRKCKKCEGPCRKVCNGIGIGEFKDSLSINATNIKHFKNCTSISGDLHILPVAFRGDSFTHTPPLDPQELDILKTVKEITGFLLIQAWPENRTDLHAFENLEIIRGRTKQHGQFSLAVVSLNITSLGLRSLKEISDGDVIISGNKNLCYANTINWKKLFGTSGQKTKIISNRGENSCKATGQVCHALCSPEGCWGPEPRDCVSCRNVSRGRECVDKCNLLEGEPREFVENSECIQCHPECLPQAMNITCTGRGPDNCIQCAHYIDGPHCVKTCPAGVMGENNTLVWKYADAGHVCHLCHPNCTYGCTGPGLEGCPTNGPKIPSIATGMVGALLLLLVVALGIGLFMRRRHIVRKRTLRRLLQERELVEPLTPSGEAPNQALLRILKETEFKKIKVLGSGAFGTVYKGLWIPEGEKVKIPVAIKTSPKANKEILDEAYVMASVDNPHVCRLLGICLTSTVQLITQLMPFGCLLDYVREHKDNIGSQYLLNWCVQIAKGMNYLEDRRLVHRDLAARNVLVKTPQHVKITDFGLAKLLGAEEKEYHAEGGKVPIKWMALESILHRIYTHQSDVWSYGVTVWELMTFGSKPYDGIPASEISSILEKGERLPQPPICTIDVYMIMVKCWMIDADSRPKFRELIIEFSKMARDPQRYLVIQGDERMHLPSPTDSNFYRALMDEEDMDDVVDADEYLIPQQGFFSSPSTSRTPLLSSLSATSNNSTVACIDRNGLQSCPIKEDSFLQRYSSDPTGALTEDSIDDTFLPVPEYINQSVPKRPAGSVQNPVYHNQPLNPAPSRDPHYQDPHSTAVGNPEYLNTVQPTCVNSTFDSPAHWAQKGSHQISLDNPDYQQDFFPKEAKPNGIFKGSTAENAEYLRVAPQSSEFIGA

Row | SMILES | IC50 [1] | IC50 (EGFR L858R) | IC50 (EGFR (d746-750))
1 | CCOc1cc2ncnc(-c3cn(C)nc3-c3ccccc3)c2cc1NC(=O)c1cnn(C(F)(F)F)c1 [Example 232, N-(7-ethoxy-4-(1-methyl-3-phenyl-1H-pyrazol-4-yl)quinazolin-6-yl)-1-(trifluoromethyl)-1H-pyrazole-4-carboxamide] | 4.1 nM | 2.7 nM | 1.5 nM
2 | Cn1cc(-c2ncnc3cc(C(F)(F)F)c(NC(=O)C45COCC4C5)nc23)c(-c2ccccc2)n1 (stereo not drawn) [Example 483, N-(4-(1-methyl-3-phenyl-1H-pyrazol-4-yl)-7-(trifluoromethyl)pyrido[3,2-d]pyrimidin-6-yl)-3-oxabicyclo[3.1.0]hexane-1-carboxamide] | 1710 nM | 748 nM | 300 nM
3 | COc1cc2ncnc(-c3cn(C)nc3-c3ccccc3)c2cc1N1CC[C@@H](F)[C@H](O)C1 (single isomer, unassigned) [Example 173, (3R,4R)-4-fluoro-1-(7-methoxy-4-(1-methyl-3-phenyl-1H-pyrazol-4-yl)quinazolin-6-yl) piperidin-3-ol or (3S,4S)-4-fluoro-1-(7-methoxy-4-(1-methyl-3-phenyl-1H-pyrazol-4-yl)quinazolin-6-yl) piperidin-3-ol] | 13.8 nM | 9 nM | 3.6 nM
4 | CCn1cc(-c2ncnc3cc(-c4cnn(C)c4)ccc23)c(-c2ccccc2)n1 [Example 496] | 0.4 nM | 0.7 nM | 0.6 nM
5 | COc1cc2ncnc(-c3cn(C(F)F)nc3-c3ccccc3)c2nc1NC(=O)C12CC(C1)C2 [Example 364, N-(4-(1-(difluoromethyl)-3-phenyl-1H-pyrazol-4-yl)-7-methoxypyrido[3,2-d]pyrimidin-6-yl)bicyclo[1.1.1]pentane-1-carboxamide] | 4 nM | 2.1 nM | 1 nM
6 | COc1cc2ncnc(-c3cn(C4CC4)nc3-c3ccccc3)c2nc1NC(=O)c1cnn(C(F)(F)F)c1 [Example 365, N-(4-(1-cyclopropyl-3-phenyl-1H-pyrazol-4-yl)-7-methoxypyrido[3,2-d]pyrimidin-6-y1)-1-(trifluoromethyl)-1H-pyrazole-4-carboxamide] | 2 nM | 1.8 nM | 0.9 nM
7 | CCn1cc(-c2ncnc3cc(OC)c(NC(=O)[C@]45COC[C@H]4C5)cc23)c(-c2ccccc2)n1 [Example 289, (1S,5S)—N-(4-(1-ethyl-3-phenyl-1H-pyrazol-4-yl)-7-methoxyquinazolin-6-yl)-3-oxabicyclo[3.1.0]hexane-1-carboxamide] | 1.5 nM | 1.5 nM | 0.8 nM
8 | COc1cc2ncnc(-c3cn(CCO)nc3-c3ccccc3)c2cc1NC(=O)C12CC(C1)C2 [Example 265, N-(4-(1-(2-hydroxyethyl)-3-phenyl-1H-pyrazol-4-yl)-7-methoxyquinazolin-6-yl)bicyclo[1.1.1]pentane-1-carboxamide] | 2.3 nM | 3.2 nM | 1.8 nM
9 | COc1cc2ncnc(-c3cn(CC(F)F)nc3-c3ccccc3)c2cc1O[C@@H]1CCN(C)C[C@H]1F [Example 3, 4-(1-(2,2-difluoroethyl)-3-phenyl-1H-pyrazol-4-yl)-6-(((3R,4R)-3-fluoro-1-methylpiperidin-4-yl)oxy)-7-methoxyquinazoline] | 0.3 nM | 2.4 nM | 1.5 nM
10 | COc1cc2ncnc(-c3cn(C)nc3-c3ccccc3)c2nc1O[C@@H](C)c1ncsc1C (single isomer, unassigned) [Example 54, (S)-4-(1-((7-methoxy-4-(1-methyl-3-phenyl-1H-pyrazol-4-yl)pyrido[3,2-d]pyrimidin-6-yl)oxy)ethyl)-5-methylthiazole or (R)-4-(1-((7-methoxy-4-(1-methyl-3-phenyl-1H-pyrazol-4-yl)pyrido[3,2-d]pyrimidin-6-yl)oxy)ethyl)-5-methylthiazole] | 1.6 nM | 10.6 nM | 1 nM
11 | COc1cc2ncnc(-c3cn(C)nc3-c3ccccc3)c2cc1NC(=O)N1CCN(C)[C@@H]2C[C@@H]21 (stereo in doubt) [Example 186, N-[7-methoxy-4-(1-methyl-3-phenyl-1H-pyrazol-4-yl)quinazolin-6-yl]-5-methyl-2,5-diazabicyclo[4.1.0]heptane-2-carboxamide] | 4 nM | 3.2 nM | 2.3 nM
12 | COc1cc2ncnc(-c3cn(C)nc3-c3ccccc3F)c2nc1NC(=O)C12CC(N(C)C)(C1)C2 [Example 403, 3-(dimethylamino)-N-(4-(3-(2-fluorophenyl)-1-methyl-1H-pyrazol-4-yl)-7-methoxypyrido[3,2-d]pyrimidin-6-yl)bicyclo[1.1.1]pentane-1-carboxamide] | 5 nM | 4.2 nM | 1.2 nM
13 | COc1cc2ncnc(-c3cn(C)nc3-c3ccccc3F)c2nc1NC(=O)[C@@]12COC[C@@H]1C2 (single isomer, unassigned) [Example 387, (1R,5R)—N-(4-(3-(2-fluorophenyl)-1-methyl-1H-pyrazol-4-yl)-7-methoxypyrido[3,2-d]pyrimidin-6-yl)-3-oxabicyclo[3.1.0]hexane-1-carboxamide or (1S,5S)—N-(4-(3-(2-fluorophenyl)-1-methyl-1H-pyrazol-4-yl)-7-methoxypyrido[3,2-d]pyrimidin-6-yl)-3-oxabicyclo[3.1.0]hexane-1-carboxamide] | 1.5 nM | 2 nM | 0.9 nM
14 | CCC(=O)Nc1cc2c(-c3cn(C)nc3-c3ccccc3)ncnc2cc1C#CCN1CCOCC1 [Example 451, N-(4-(1-methyl-3-phenyl-1H-pyrazol-4-yl)-7-(3-morpholinoprop-1-yn-1-yl)quinazolin-6-yl)propionamide] | 2.8 nM | 3.5 nM | 2 nM
15 | COc1cc2ncnc(-c3cn(C)nc3-c3ccc(F)cc3F)c2nc1NC(=O)[C@@]12C[C@@H]1CN(C)C2 (single isomer, unassigned) [Example 423, (1S,5S)—N-(4-(3-(2,4-difluorophenyl)-1-methyl-1H-pyrazol-4-yl)-7-methoxypyrido[3,2-d]pyrimidin-6-yl)-3-methyl-3-azabicyclo[3.1.0]hexane-1-carboxamide or (1R,5R)—N-(4-(3-(2,4-difluorophenyl)-1-methyl-1H-pyrazol-4-yl)-7-methoxypyrido[3,2-d]pyrimidin-6-yl)-3-methyl-3-azabicyclo[3.1.0]hexane-1-carboxamide] | 3.8 nM | 4.1 nM | 1.6 nM
16 | CCOc1cc2ncnc(-c3cn(C)nc3-c3ccccc3)c2cc1OC(=O)N1CCO[C@H](C)C1 [Example 73, 7-ethoxy-4-(1-methyl-3-phenyl-1H-pyrazol-4-yl)quinazolin-6-yl (R)-2-methylmorpholine-4-carboxylate] | 11.1 nM | 2.9 nM | 1.6 nM
17 | CCOc1cc2ncnc(-c3cn(C)nc3-c3ccccc3)c2cc1N1CC2CC(C1)O2 [Example 167, 3-(7-ethoxy-4-(1-methyl-3-phenyl-1H-pyrazol-4-yl)quinazolin-6-yl)-6-oxa-3-azabicyclo[3.1.1]heptane] | 1.7 nM | 1.9 nM | 1.1 nM
18 | C[C@@H](O)c1cc2c(-c3cn(CC(F)F)nc3-c3ccccc3)ncnc2cc1O[C@H]1CCOC1 (single isomer, unassigned) [Example 118, (R)-1-(4-(1-(2,2-difluoroethyl)-3-phenyl-1H-pyrazol-4-yl)-7-(((S)-tetrahydrofuran-3-yl)oxy)quinazolin-6-yl)ethan-1-ol or (S)-1-(4-(1-(2,2-difluoroethyl)-3-phenyl-1H-pyrazol-4-yl)-7-(((S)-tetrahydrofuran-3-yl)oxy)quinazolin-6-yl)ethan-1-ol] | 6 nM | 3.9 nM | 2.4 nM
19 | CN(C)CCOc1cc2ncnc(-c3cn(C)nc3-c3ccccc3)c2nc1NC(=O)C12COCC1C2 (stereo not drawn) [Example 435, N-(7-(2-(dimethylamino)ethoxy)-4-(1-methyl-3-phenyl-1H-pyrazol-4-yl)pyrido[3,2-d]pyrimidin-6-yl)-3-oxabicyclo[3.1.0]hexane-1-carboxamide] | 9.7 nM | 25.8 nM | 3.1 nM
20 | CCn1cc(-c2ncnc3cc(OC)c(NC(=O)[C@]45COC[C@H]4C5)cc23)c(-c2ccccc2F)n1 (mixture of isomers) [Example 263, (1S,5S)—N-(4-(1-ethyl-3-(2-fluorophenyl)-1H-pyrazol-4-yl)-7-methoxyquinazolin-6-yl)-3-oxabicyclo[3.1.0]hexane-1-carboxamide and (1R,5R)—N-(4-(1-ethyl-3-(2-fluorophenyl)-1H-pyrazol-4-yl)-7-methoxyquinazolin-6-yl)-3-oxabicyclo[3.1.0]hexane-1-carboxamide] | 2.7 nM | 1.7 nM | 0.7 nM
21 | CCOc1cc2ncnc(-c3cn(C)nc3-c3ccccc3)c2cc1NC(=O)c1cccnc1 [Example 296, N-(7-ethoxy-4-(1-methyl-3-phenyl-1H-pyrazol-4-yl)quinazolin-6-yl)nicotinamide] | 1.1 nM | 1.4 nM | 0.7 nM
22 | COc1cc2ncnc(-c3cn(C)nc3-c3ccc(F)cc3)c2cc1NC(=O)C1(CN(C)C)CC1 [Example 211, 1-((dimethylamino)methyl)-N-(4-(3-(4-fluorophenyl)-1-methyl-1H-pyrazol-4-yl)-7-methoxyquinazolin-6-yl)cyclopropane-1-carboxamide] | 3.3 nM | 2.8 nM | 1.5 nM
